Six compounds from ChEMBL document CHEMBL1130793, “Peptide inhibitors of N-succinyl diaminopimelic acid aminotransferase (DAP-AT): a novel class of antimicrobial compounds” (Bioorg Med Chem Lett, 1998) can be followed below.

For orientation: inhibition means the change of the read-out against control, counted positive when it falls. As usually defined, the Km is the substrate concentration at which the rate is half of its maximum.

A short description of data set [1]: Catalytic constant was determined. The data set is classed as ADME.
The test system of data set [2] is N-succinyldiaminopimelate aminotransferase (E. coli). As to the kind of experiment: Compound was tested for inhibition of N-Succinyl Diaminopimelic Acid Aminotransferase from Escherichia coli. The conditions noted are these: concentration not given here.
Data set [3] is described as follows: Michaelis-Menten constant was determined. The data set is classed as ADME. The conditions noted are these: read-out: Km app.
A short description of data set [4]: Ratio of the Kcat and Km app was determined. The data set is classed as ADME.
Data set [5] in a line: Pharmacokinetic parameter was determined. The data set is classed as ADME.
For data set [6], the system named is N-succinyldiaminopimelate aminotransferase (E. coli). The data set is described as follows: Compound was tested for 50% inhibition of N-Succinyl Diaminopimelic Acid Aminotransferase (DAP-AT) from E. coli; overall rate of substrate consumption increases at 20 mM.
The test system is the same in data set [7]. As to the kind of experiment: Compound was tested for inhibition of N-Succinyl Diaminopimelic Acid Aminotransferase from Escherichia coli. The conditions noted are these: concentration not given here.
Data set [8] concerns Escherichia coli. As to the kind of experiment: Regeneration time when tested against inhibition of N-Succinyl Diaminopimelic Acid Aminotransferase from Escherichia coli.

In turn, `O=C(O)CCC(=O)N[C@@H](CCCC(=O)C(=O)O)C(=O)O` registered a k cat in data set [1] of 164 s⁻¹. In addition, the inhibition in data set [2] came to 100%. The Km in data set [3] was found to be 600 µM. Also, in data set [4], the “k cat/Km” value was 273000 M⁻¹ s⁻¹.
For the compound `CC(=O)N[C@@H](CC(=O)[O-])C(=O)N[C@@H](CCCC(=O)C(=O)[O-])C(=O)[O-].[Li+].[Li+].[Li+]`, the k cat in data set [5] came to 40 s⁻¹. Besides, the IC50 result in data set [6] is “overall rate of substrate consumption increases at 20 mM”. Further, the inhibition in data set [7] turned out to be 9.3%. Moreover, the Km in data set [3] worked out at 1570 µM. In data set [4], the “k cat/Km” value amounted to 25400 M⁻¹ s⁻¹.
As for `NNC(CCC[C@H](NC(=O)CCC(=O)O)C(=O)O)C(=O)O` (stereo partly specified), the T1/2 regen in data set [8] is 78.6 min.
Still for that read-out and setting: the same measure for `CC(=O)N[C@@H](CC(=O)O)C(=O)N[C@@H](CCCC(NN)C(=O)O)C(=O)O` (stereo partly specified): 48.95 min; for `CC(=O)N[C@@H](Cc1ccccc1)C(=O)N[C@@H](CCCC(NN)C(=O)O)C(=O)O` (stereo partly specified): 6.07 min.
Compound `CC(=O)N[C@@H](Cc1ccccc1)C(=O)N[C@@H](CCCC(=O)C(=O)[O-])C(=O)[O-].[Li+].[Li+]` gave a k cat in data set [5] of less than 2.1 s⁻¹. The compound further gave an inhibition in data set [2] of less than 0.8%. Also, in data set [3], the Km was less than 1000 µM. Moreover, the “k cat/Km” value in data set [4] is less than 2100 M⁻¹ s⁻¹.
